Laboratory results as given in US9079048B2, “Cosmetic or dermopharmaceutical composition comprising enkephalin-derived peptides for reducing and/or eliminating facial wrinkles” (Lipotec, S.A., priority 2005, dated 2015).
Non-standard residues stand in square brackets, D forms with d. No end group written: not given here.

Assays:
Assay type in all cases: cell-based
[1] = test system: primary cultures of rat hippocampus neurons; experiment: Neuronal exocytosis of [3H]-L-glutamate; settings: 1 mM peptide alone, 1 hour at 37° C; depolarization with 75 mM KCl and 2 mM CaCl2; FIG. 4
Description: To determine if the enkephalin-derived peptides inhibit the neuronal exocytosis of neurotransmitters, their activity on the release of the neurotransmitter L-glutamate from primary cultures of rat hippocampus neurons was monitored. The exocytosis of this neurotransmitter in neuronal cultures can be achieved by means of the […] depolarization of the cells. The primary cultures of rat embryo hippocampus are prepared by means of conventional methods [Blanes-Mira, C., Merino, J. M., Valera, E., Fernandez-Ballester, G., Gutierrez, L. M., Viniegra, S., Pérez-Payá, E. and Ferrer-Montiel, A. Small peptides patterned after the N-terminus domain of SNAP25 inhibit SNARE complex assembly and regulated exocytosis. J. Neurochem. 88, 124-135] and are maintained in culture for 14 days in an incubator at 37° C. and 5% CO2. The cultures are incubated with [^3H]-L-glutamine to load them with [^3H]-L-glutamate for 3 hours at 37° C. The excess [^3H]-L-glutamine is then washed and they are incubated with 1 mM of the peptides to be studied for 1 hour at 37° C. The release of [^3H]-L-glutamate is carried out by means of depolarization with 75 mM KCl and 2 mM CaCl2 buffered in physiological buffer for 10 minutes at 37° C. The culture medium is collected and the amount of [^3H]-L-glutamate is quantified in a beta radioactivity counter. The results are standardized with respect to the release of [^3H]-L-glutamate in the absence of the peptide and are corrected with respect to the baseline release in the absence of calcium. […] The incubation with the enkephalin-derived peptide defined by SEQ ID NO: 6 caused a 4% inhibition.
In order to determine if the activity of enkephalin-derived peptides is additive and/or synergistic with the exocytosis inhibiting peptide Argireline®, defined by SEQ ID NO: 5, the potency of both peptides for separately and jointly inhibiting the electrically evoked release of [^3H]-L-glutamate in the presence of Ca^2+ was compared. […]

[2] = test system: neurons in primary cultures of rat dorsal root ganglia; experiment: Neuronal excitability, action potentials evoked by chemical stimulus (pH 6.0), patch clamp current-clamp; settings: 1 mM peptide
Description: (§1) The activity of the enkephalin-derived peptide defined by SEQ ID NO: 7 (Tyr-D-Ala-Gly-Phe-Leu) on the excitability of neurons was studied in primary cultures of rat dorsal root ganglia. These neurons were extracted following widely known methods [Nicol, G. D., Lopshire, J. C. and Pafford, C. M. (1997) Tumor necrosis factor enhances the capsaicin sensitivity of rat sensory neurons. J. Neurosci. 17, 975-982]. The neurons were cultured in a DMEM medium supplemented with 10% bovine serum, 5% horse serum and 50 ng/mL NGF for 2 days and the electrical activity was followed by means of a patch clamp technique with a conventional electrophysiology equipment in the current-clamp configuration [Hille, B. (2001) Ion channels of excitable membranes. Third Ed. Sinauer Associates, Inc]. Two neuron stimulation protocols were used to determine the inhibitory effect of the enkephalin-derived peptide defined by SEQ ID NO: 7.
The neurons were first stimulated by means of a chemical stimulus such as the exposure to a buffered solution at pH 6.0. In these conditions, acid-dependent channels depolarizing the neuronal membrane are activated, triggering action potentials (FIG. 1). […] The inhibition of neuronal excitability caused by the enkephalin-derived peptide defined by SEQ ID NO: 7 is reversible as shown by the recovery of said excitability after eliminating the peptide from the extracellular medium. […]

[3] = test system: neurons in primary cultures of rat dorsal root ganglia; experiment: Neuronal excitability, electrically evoked action potentials (40 mV depolarizing stimulus), patch clamp current-clamp; settings: 1 mM peptide
Description: as §1
Secondly, the effect of the enkephalin-derived peptide defined by SEQ ID NO: 7 on electrically evoked neuronal activity was evaluated. To that end, the neurons were excited with a depolarizing electrical stimulus of 40 mV from their rest potential. As a result, the repetitive action potentials were triggered throughout the electrical stimulation time (FIG. 2). […]

Substance | inhibition of exocytosis of [3H]-L-glutamate [1] | effect on action potentials evoked by exposure to acidic extracellular medium ([2]; buffered solution at pH 6.0, FIG. 1) | reversibility of the inhibition of neuronal excitability after eliminating the peptide ([2]; pH 6.0 stimulus, after washing) | reversibility of the inhibition of electrically evoked action potentials ([3]; after washing) | effect on electrically evoked action potentials ([3]; depolarizing electrical stimulus of 40 mV from rest potential, FIG. 2)
Argireline®: exocytosis inhibiting peptide, acetyl hexapeptide-8 marketed by Lipotec, residues 12 to 17 of protein SNAP-25 (Ac-EEMQRR-NH2; listed as Homo sapiens) [reference compound] | 18% | – | – | – | –
Tyr-D-Ala-Gly-Phe-Leu (Y[dA]GFL; listed as Homo sapiens) [SEQ ID NO: 7, enkephalin-derived peptide] | 12% | inhibition of the action potentials | reversible | partially reversible | decrease in the frequency and amplitude of the action potentials
Tyr-Gly-Phe-Leu (YGFL; printed: Tyr-Gly-Phe-Leu) [SEQ ID NO: 6, enkephalin-derived peptide] | 4% | – | – | – | –
